PubChem BioAssay (NCI)
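Protocol summary: plate cells (96-well), add compound at 5 concentrations, incubate 48 h, interpolate endpoints linearly. GI50: concentration for 50% inhibition of growth. Definition used: TGI = concentration required for complete inhibition of growth.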

Assays:
Assay in all cases: inhibition of tumour cell growth, NCI panel, 48 h
[1] = test system: A498 renal
[2] = test system: ACHN renal
[3] = test system: HCT-15 colon
[4] = test system: MALME-3M melanoma
[5] = test system: NCI-H226 lung
[6] = test system: NCI-H522 lung
[7] = test system: OVCAR-3 ovarian
[8] = test system: RPMI-8226 leukemia
[9] = test system: SF-539 CNS
[10] = test system: UO-31 renal

| SMILES | GI50 [1] [µM] | TGI [1] [µM] | GI50 [2] [µM] | TGI [2] [µM] | GI50 [3] [µM] | TGI [3] [µM] | GI50 [4] [µM] | TGI [4] [µM] | GI50 [5] [µM] | TGI [5] [µM] | GI50 [6] [µM] | TGI [6] [µM] | GI50 [7] [µM] | TGI [7] [µM] | GI50 [8] [µM] | TGI [8] [µM] | GI50 [9] [µM] | TGI [9] [µM] | GI50 [10] [µM] | TGI [10] [µM] |
| --- | --- | --- | --- | --- | --- | --- | --- | --- | --- | --- | --- | --- | --- | --- | --- | --- | --- | --- | --- | --- |
| O=C(O)c1cn(C2CC2)c2cc(N3CCN(C(=O)Nc4nc(-c5ccccc5)cs4)CC3)c(F)cc2c1=O | 1.06 | 7.08 | 0.894 | 7.54 | 2.27 | > 100 | 1.53 | 6.52 | 2.96 | 57.5 | 1.39 | 6.26 | 0.582 | 16.5 | 0.826 | 7.41 | 0.634 | > 100 | 0.876 | > 100 |
| O=C(O)C1CCCCC1c1c2ccc(=O)c(O)c-2oc2c(O)c(O)ccc12 (centres undefined) |  | > 100 |  | 60.1 |  |  |  | > 100 |  | 71.5 |  | 67 |  | > 100 |  | 69.7 |  |  |  | > 100 |
| COC(=O)C1=C(c2ccc(OC)c(OC)c2)OC(c2cc(OC)c(OC)c(OC)c2)C1 (centres undefined) |  | 63 |  | > 100 |  |  |  | > 100 |  | > 100 |  |  |  | > 100 |  | > 100 |  | > 100 |  | > 100 |
| CS(=O)(=O)NNS(=O)(=O)c1ccccc1 |  | > 100 |  | > 100 |  | > 100 |  | > 100 |  | > 100 |  | > 100 |  |  |  | > 100 |  | > 100 |  | > 100 |
| S=c1nc(COc2ccc(Cl)cc2Cl)[nH][nH]1 |  | > 100 |  | > 100 |  | > 100 |  | > 100 |  | > 100 |  |  |  | > 100 |  | > 100 |  | > 100 |  | > 100 |
| O=C(CN1CCN(c2cc3c(cc2F)c(=O)c(C(=O)O)cn3C2CC2)CC1)Nc1nc(-c2ccc(Cl)cc2)cs1 |  |  | 3.05 | > 100 | 3.23 | 23.7 | 3.19 | 11.1 | 5 | > 100 | 3.15 | 30.4 | 3.51 | 17.3 | 3.21 | > 100 | 3.93 | > 100 | 2.96 | > 100 |
| CC(=O)c1c(CN(C)c2ccccc2)n([O-])c2ccccc2[n+]1=O | 28.1 | > 100 | 32.9 | > 100 | 31.3 | > 100 | 23.9 | 87.2 | 20.2 | 67.5 | 25.6 | 69.9 |  |  | 13.2 | 40.9 | 28.7 | 86.6 | 32 | > 100 |
| O=C1NC(=O)C(=Nc2cccc3c(=O)[nH][nH]c(=O)c23)C(c2nc3ccccc3s2)C1=O (centres undefined) |  | > 100 |  | > 100 |  | > 100 |  | > 100 |  | > 100 |  | > 100 |  | > 100 |  |  |  |  |  | > 100 |
| COC(=O)C(=CNC(N)=O)C(=O)OC |  |  |  | > 100 |  | > 100 |  |  |  |  |  | > 100 |  | > 100 |  | > 100 |  | > 100 |  | > 100 |
| O=C(CCC(=O)Nc1ccc(Cl)c(Cl)c1)CC(=O)c1ccc(F)cc1 |  |  |  | > 100 |  |  |  | > 100 |  | > 100 |  |  |  | > 100 |  |  |  | > 100 |  | > 100 |
| CN(C)C(=Nc1nc(=[N+](C)C)ss1)N(C)C |  | > 100 |  | > 100 |  | > 100 |  |  |  | > 100 |  | > 100 |  |  |  | > 100 |  | > 100 |  | > 100 |
| CN=C(NC(=S)N(C)C)N(C)C |  | > 100 |  | > 100 |  | > 100 |  | > 100 |  | > 100 |  | > 100 |  |  |  | > 100 |  | > 100 |  | > 100 |
| CCCCCCCCCCCCCCCCNCCCN(C)CCCN |  | 34 |  | 34.9 |  | 32.7 |  |  |  | 39.3 |  | 32.3 |  | 35.9 |  | 46.2 |  | 34.5 |  | 31.6 |
| C#CC[N+](C)(CC#C)CC#C |  |  |  | > 100 |  | > 100 |  | > 100 |  |  |  | > 100 |  | > 100 |  | > 100 |  |  |  | > 100 |
| CCOC(=O)c1c(C)n(Cc2ccccc2)c2c1cc(O)c1[nH]c(Cc3ccccc3)nc12 | 28.5 | > 86.1 | 23 | > 100 | 4.66 | > 100 | 9.93 | 58 | 12.1 | > 75.9 |  |  | 11.4 | 44 | 11.5 | > 100 | 17.1 | > 100 | > 32.9 | > 51.4 |
| COc1cc(OC)c2nccc(NCCCN(C)C)c2c1[N+](=O)[O-] |  | > 100 |  | > 100 |  | > 100 |  | > 100 |  |  |  | > 100 |  | > 100 |  | > 100 |  | > 100 |  | > 100 |
| CCC(c1ccc(OC)cc1)C(CC)c1ccc(O)c(CN2CCN(C)CC2)c1 (centres undefined) | 4.13 | 16.1 | 9.99 | 22.9 | 2.66 | 7.67 |  |  | 12.4 | 30.8 | 4.74 | 17 | 4.1 | 14.3 | 2.92 | 9.5 | 2.66 | 7.98 | 1.83 | 7.32 |
| COC(=O)/C(=N/Nc1cccc(Cl)c1)C(C(=O)C(=O)Nc1cccc(Cl)c1C)c1nc2ccccc2nc1C (centres undefined) |  | > 100 |  | > 100 |  |  |  | > 100 |  |  |  | > 100 |  | > 100 |  | > 100 |  | > 100 |  | 75.1 |
| N#CC1CCCCOCCOCCOCCOCCOCCCCCC1=O (centres undefined) |  | > 100 |  | > 100 |  | > 100 |  | > 100 |  | > 100 |  | > 100 |  | > 100 |  | > 100 |  |  |  | > 100 |
| CCCC(C)n1c(C)nc2c1C(=O)c1ccccc1C2=O (centres undefined) |  |  |  | 95.8 |  | > 100 |  | 67 |  | > 100 |  | 97 |  | 85.1 |  |  |  | 98 |  | 93.3 |
